# Measured values as given in PubChem BioAssay AID179 (DTP/NCI, 2004).
# Active and inactive are the calls of the source.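 How the source made its calls: active means compounds giving half or more protection of infected cells from virus-caused growth loss, again on retest; inactive means the rest.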
# System: CEM cells HIV-1 protection, formazan growth assay
# Test: NCI AIDS Antiviral Assay
# Conditions: for IC50: measured here: growth of uninfected CEM cells
# Summary of the method: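 Protection of CEM cells against HIV-1 measured as cell growth via soluble formazan read-out, with five concentrations tested on both infected and uninfected cells; failure to protect may reflect toxicity.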
SMILES,EC50 [µM],IC50 [µM],outcome
CC(C)(C)/C(O)=C\c1nc2cc(F)c(F)cc2[nH]c1=O,> 200,182,
O=C1C(=O)N(c2ccc(Cl)cc2)C(=O)C(=Nc2cccc3c(=O)[nH][nH]c(=O)c23)C1c1nc2ccccc2o1 (stereo unspecified),,,inactive
CC(CC(=O)O)C(N)C(=O)O (stereo unspecified),> 200,> 200,
CC(C)(C=O)CC(C#N)/C(=N\NC(N)=O)C(=O)Nc1ccccc1C(N)=O (stereo unspecified),> 676,> 676,
NC(=O)NC1C(c2ccccc2)=NOC1C(N)=O (stereo unspecified),> 200,> 200,
NS(=O)(=O)c1nnc(NC(=O)/C=C/C(=O)O)s1,> 200,> 200,
CCOc1ncnc2ccc(Cl)c(I)c12,> 77.6,> 77.6,
C1COC(N2CC3CCC(CC3)C2)=N1,> 200,> 200,
CCOC(=O)C1=NN(c2ccccc2)C(=O)/C1=C/N1C(=O)/C(=C/c2ccc([N+](=O)[O-])cc2)SC1=S,> 200,23.4,
COC(=O)c1cnn2c1ccc1ccccc12,> 200,29.5,
COc1ccc(/C=N/Nc2nnc3c(n2)[nH]c2ccc(Br)cc23)cc1,> 200,> 200,
C=C1C(OC(=O)CC(c2ccccc2)N(C)C)C[C@H](OC(C)=O)[C@]2(C)C1C(O)[C@@H]1CC(OC(C)=O)C(C)=C([C@@H](OC(C)=O)C2OC(C)=O)C1(C)C (stereo partly specified),,,inactive
CC1CC(=O)Nc2cc(Cl)ccc2N1C(=O)C1CC1 (stereo unspecified),> 200,> 200,
C=CCNC(=S)NNC(=S)NCC=C,> 200,23.4,
CCOC(=O)C(NC(=O)c1cccc(Cl)c1)(Nc1cccc(C)c1)C(F)(F)F (stereo unspecified),> 200,17.4,
Cc1[nH]nc2c1C(=O)C=C(N(CCO)c1ccccc1)C2=O,,,inactive
N=c1ncn(Cc2ccccc2)c2nc[nH]c12,> 200,> 200,
CC(=O)OCC1OC(n2c(=S)n(-c3ccccc3)c(=O)c3ccccc32)C(OC(C)=O)C(OC(C)=O)C1OC(C)=O (stereo unspecified),> 32.4,> 32.4,
CNCc1cc(OC)ccc1-c1ccc(OC)c(OC)c1OC,> 708,105,
O=Cc1c2c(cc3c1CC1(C3)Cc3cc4c(c(C=O)c3C1)CCCC4)CCCC2,> 200,123,
CC(=O)OCC1OC(n2c3c(c(-c4ccco4)c(C#N)c2=S)CCC3)C(OC(C)=O)C(OC(C)=O)C1OC(C)=O (stereo unspecified),> 200,9.77,

SMILES,EC50 [µM],IC50 [µM],outcome
CCOC(=O)/C(=C\c1cccc(C)c1)C(C)=O,> 407,63.1,
CC(=O)N(C(C)=O)C1=C2c3ccccc3N(S(=O)(=O)c3ccccc3)C2n2c(=O)n(-c3ccccc3)c(=O)n2C1 (stereo unspecified),> 9.33,> 9.33,
COc1ccc(COCC[C@H](C)OC2OC(CO)C(O)C(O)C2O)cc1 (stereo partly specified),> 200,> 200,
COC12OC3(C4OC41)C(C(=O)O[C@H]3CO[Si](C)(C)C(C)(C)C)C2C(=O)Oc1ccccc1 (stereo partly specified),> 200,> 200,
CCC1(CCO)C(=O)NC(=Nc2ccccc2)NC1=O (stereo unspecified),> 479,> 479,
COC(=O)[C@]1(Cc2ccc3ccccc3c2)CCCCCCN1C(=O)c1ccccc1,,,inactive
OCC(O)C(OC1OC(CO)C(O)C(O)C1O)c1nn(-c2ccc(Cl)cc2)c2nc3cc(Cl)ccc3nc12 (stereo unspecified),,,inactive
Cc1c(CN2CCN(C)CC2)c(O)c2c(=O)c3c(O)c(CN4CCN(C)CC4)c(O)c4c5c(O)c(CN6CCN(C)CC6)c(O)c6c(=O)c7c(O)c(CN8CCN(C)CC8)c(C)c8c1c2c(c34)c(c78)c65,> 10.2,> 10.2,
OCC1OC(c2ccccc2)CC1O (stereo unspecified),> 200,> 200,
CCOc1ccc(N=NC2C(=O)N(C(=O)CC(=O)Nc3ccc(C)cc3)N=C2C)cc1 (stereo unspecified),> 200,10.5,
COc1cc2c(cc1OC)CN1CCCc3cc(OC)c(OC)cc3C1C2 (stereo unspecified),> 200,32.4,
CN(CC#N)C1CCC[C@]1(O)/C=C/[Si](C)(C)C (stereo partly specified),> 102,> 102,
Cc1ccc2c(c1)nc1c3ccccc3nc(-c3ccccc3N)n21,> 28.8,> 28.8,
Cc1c(NC(=O)Nc2ccc(F)cc2)c(=O)n(-c2ccccc2)n1C,> 200,> 200,
O=C(Nc1ccc(Cl)c(Cl)c1)OCCN1c2ccccc2Sc2ccccc21,> 200,38,
CC(C)(CCCCC(C)(C)NC1=NCCO1)NC1=NCCO1,> 200,77.6,
CC1(C)O[C@@H]([C@H](O)CO)[C@H](O)[C@@H](C2SCCCS2)O1,> 200,> 200,
C=C(Cl)CSC(=S)N1CCOCC1,,,inactive
CC(C)=CCN1CC(C)C(=O)Nc2ccccc21 (stereo unspecified),19.5,117,
N=C1N=Nc2nc(C(C(=O)c3cccc4ccccc34)c3nc4n(c3O)C(=N)N=N4)c(O)n21 (stereo unspecified),> 200,117,
CN1C(=S)NC2C(O)C(O)C(CO)OC21 (stereo unspecified),> 1070,> 1070,

SMILES,EC50 [µM],IC50 [µM],outcome
CC(=O)NC(=O)NC1=NCCC(=O)N1CCc1c[nH]c2ccccc12,> 200,> 200,
COc1ccc2[nH]c3c(C)cc([N+](=O)[O-])c(C)c3c2c1,> 200,10.7,
Cc1cn(C2CC(OC(c3ccccc3)(c3ccccc3)c3ccccc3)C(COC(c3ccccc3)(c3ccccc3)c3ccccc3)O2)c(=O)[nH]c1=O (stereo unspecified),> 200,> 200,
N#Cc1c2n(c(=S)n(-c3ccccc3)c1=N)CCCCCCC2,> 200,10.7,
O=c1c2cc([N+](=O)[O-])ccc2n2n1Cc1ccccc1CC2,> 200,> 200,
CC(O)CN1C(=O)C2C3C=CC(C3)C2C1=O (stereo unspecified),> 200,> 200,
CN(N)c1nc(N)c(C#N)c(C#N)c1C#N,> 100,> 100,
N#CCCC1C(C#N)C2(Cl)CC1(Cl)C(Cl)=C2Cl (stereo unspecified),> 200,23.4,
O=C1C2CN(Cc3ccccc3)CC1CN(Cc1ccccc1)C2,> 214,141,
COc1ccc2c(C)cc(=O)oc2c1,> 200,> 200,
CCc1noc(N)c1C#N,> 200,182,
O=C(c1cccs1)N1CCCN(C(=O)c2cccs2)C1=S,> 200,> 200,
Cc1cc(C)n(C2=NS(=O)(=O)c3ccccc3N2C)n1,> 123,> 123,
O=C(Sc1c(-c2ccccc2)c(=O)n(-c2ccccc2)c(=S)n1-c1ccccc1)c1ccccc1,> 200,8.51,
CC(CCC(=O)O)[C@H]1CCC2[C@H]3C(CC[C@@]21C)[C@@]1(C)CCC(O)C[C@H]1C[C@@H]3O (stereo partly specified),> 200,> 100,
N#Cc1c(-c2ccc([N+](=O)[O-])cc2)c(C#N)c(=O)n(NS(=O)(=O)c2ccccc2)c1S,> 200,16.6,
CCN1C[C@]2(C)CCC(OC)C34[C@@H]1[C@@]1(OCO[C@@]15C[C@H](OC)[C@@H]1C[C@]3(O)[C@@H]5C1OC(C)=O)[C@@H](OC(C)=O)[C@@H]42 (stereo partly specified),,,inactive
CCOC(=O)c1cc(OC(=O)CC)c2c(OC)ccc(OC)c2c1,,,inactive
COC(=O)c1cc(/C=C/C(=O)Cc2ccccc2)cn1S(=O)(=O)c1ccccc1,> 200,> 200,
Cc1ccc(NC(=O)c2cc(S(=O)(=O)Nc3n[nH]c(=O)n3-c3ccccc3)c(S)cc2Cl)cc1,42.7,> 200,
